Measurements: US10414775B2 (Merck Sharp & Dohme Corp., priority 2016, dated 2019)

What follows are compounds tested against T1, Human CYP8B1 (Homo sapiens, UniProt Q9UNU6) (assay: Human Cyp8B1 Liver Microsome Assay). Settings: human liver microsomes; substrate 7α-hydroxy-4-cholesten-3-one, NADPH; 30 min pre-incubation, 45 min reaction; RapidFire MS readout.
T1 construct: tissue Xenotech; host or cells: human liver microsomes
T1 sequence (Q9UNU6 1-501): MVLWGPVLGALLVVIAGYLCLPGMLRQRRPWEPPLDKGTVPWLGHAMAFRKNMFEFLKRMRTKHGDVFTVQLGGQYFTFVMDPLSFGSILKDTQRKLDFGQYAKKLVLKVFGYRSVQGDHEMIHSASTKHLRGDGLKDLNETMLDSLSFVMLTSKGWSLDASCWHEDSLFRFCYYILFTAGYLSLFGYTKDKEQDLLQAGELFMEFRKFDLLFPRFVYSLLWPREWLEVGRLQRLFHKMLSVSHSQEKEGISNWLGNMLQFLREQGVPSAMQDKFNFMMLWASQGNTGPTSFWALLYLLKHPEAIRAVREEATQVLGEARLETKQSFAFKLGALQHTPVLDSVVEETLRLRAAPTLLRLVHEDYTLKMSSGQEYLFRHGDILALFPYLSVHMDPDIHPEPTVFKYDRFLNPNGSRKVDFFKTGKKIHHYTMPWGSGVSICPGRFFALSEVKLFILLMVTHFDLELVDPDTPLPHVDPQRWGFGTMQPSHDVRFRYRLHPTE
Format: biochemical
In short: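 Human liver microsomes (65 μg/ml, 0.1 M phosphate pH 7.4) preincubated 30 min at room temperature with inhibitor (1.25% DMSO final), then reacted 45 min with 7α-hydroxy-4-cholesten-3-one and NADPH. 7α,12α-dihydroxy product quantified by RapidFire ESI+ MRM against d7 internal standard; IC50 from four-parameter logistic fit.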
An IC50 of 0.8 nM was found for `C[C@@H]1CN(c2c(Cl)cnc3c2CCN(CC(F)(F)F)C3)CC[C@@H]1C(=O)N1CCn2c(nnc2C(F)(F)F)C1` [Example 60, ((3S,4S)-1-(3-chloro-7-(2,2,2-trifluoroethyl)-5,6,7,8-tetrahydro-1,7-naphthyridin-4-yl)-3-methylpiperidin-4-yl)(3-(trifluoromethyl)-5,6-dihydro-[1,2,4]triazolo[4,3-a]pyrazin-7(8H)-yl)methanone] in this work.
An IC50 of 1 nM was found for `C[C@@H]1CN(c2c(Cl)cnc3c2CCN(CC2CC2)C3)CC[C@@H]1C(=O)N1CCn2c(nnc2C(F)(F)F)C1` [Example 61, ((3S,4S)-1-(3-chloro-7-(cyclopropylmethyl)-5,6,7,8-tetrahydro-1,7-naphthyridin-4-yl)-3-methylpiperidin-4-yl)(3-(trifluoromethyl)-5,6-dihydro-[1,2,4]triazolo[4,3-a]pyrazin-7(8H)-yl)methanone] in this work.
An IC50 of 0.4 nM was found for `C[C@@H]1CN(c2c(Cl)cnc3c2CCN(c2ccccn2)C3)CC[C@@H]1C(=O)N1CCn2c(nnc2C(F)(F)F)C1` [Example 62, ((3S,4S)-1-(3-chloro-7-(pyridin-2-yl)-5,6,7,8-tetrahydro-1,7-naphthyridin-4-yl)-3-methylpiperidin-4-yl)(3-(trifluoromethyl)-5,6-dihydro-[1,2,4]triazolo[4,3-a]pyrazin-7(8H)-yl)methanone] in this work.
An IC50 of 120 nM was found for `C[C@@H]1CN(c2ccnc3c2CCN(CC(F)(F)F)C3)CC[C@@H]1C(=O)N1CCn2c(nnc2C(F)(F)F)C1` [Example 63, ((3S,4S)-3-methyl-1-(7-(2,2,2-trifluoroethyl)-5,6,7,8-tetrahydro-1,7-naphthyridin-4-yl)piperidin-4-yl)(3-(trifluoromethyl)-5,6-dihydro-[1,2,4]triazolo[4,3-a]pyrazin-7(8H)-yl)methanone] in this work.
An IC50 of 49 nM was found for `C[C@@H]1CN(c2ccnc3c2CCN(C(=O)OC2(C)CC2)C3)CC[C@@H]1C(=O)N1CCn2c(nnc2C(F)(F)F)C1` [Example 64, 1-methylcyclopropyl 4-((3 S,4S)-3-methyl-4-(3-(trifluoromethyl)-5,6,7,8-tetrahydro-[1,2,4]triazolo[4,3-a]pyrazine-7-carbonyl)piperidin-1-yl)-5,6-dihydro-1,7-naphthyridine-7(8H)-carboxylate] in this work.
An IC50 of 1.75 nM was found for `C[C@@H]1CN(c2c(Cl)cnc3c2CCN(C(=O)C2CC2)C3)CC[C@@H]1C(=O)N1CCn2c(nnc2C(F)(F)F)C1` [Example 65, (3-chloro-4-((3S,4S)-3-methyl-4-(3-(trifluoromethyl)-5,6,7,8-tetrahydro-[1,2,4]triazolo[4,3-a]pyrazine-7-carbonyl)piperidin-1-yl)-5,6-dihydro-1,7-naphthyridin-7(8H)-yl)(cyclopropyl)methanone] in this work.
An IC50 of 4.5 nM was found for `CC(C)NC(=O)c1ccc2c(N3CC[C@H](C(=O)N4CCn5c(nnc5C(F)(F)F)C4)[C@H](C)C3)ccnc2c1` [Example 66, N-isopropyl-4-((3 S,4S)-3-methyl-4-(3-(trifluoromethyl)-5,6,7,8-tetrahydro-[1,2,4]triazolo[4,3-a]pyrazine-7-carbonyl)piperidin-1-yl)quinoline-7-carboxamide] in this work.
An IC50 of 23.6 nM was found for `C[C@@H]1CN(c2ccnc3cc(C(=O)NCC4CC4)ccc23)CC[C@@H]1C(=O)N1CCn2c(nnc2C(F)(F)F)C1` [Example 67, N-(cyclopropylmethyl)-4-((3 S,4S)-3-methyl-4-(3-(trifluoromethyl)-5,6,7,8-tetrahydro-[1,2,4]triazolo[4,3-a]pyrazine-7-carbonyl)piperidin-1-yl)quinoline-7-carboxamide] in this work.
An IC50 of 21.1 nM was found for `C[C@@H]1CN(c2ccnc3cc(C(=O)NC45CC(C4)C5)ccc23)CC[C@@H]1C(=O)N1CCn2c(nnc2C(F)(F)F)C1` [Example 68, N-(bicyclo[1.1.1]pentan-1-yl)-4-((3S,4S)-3-methyl-4-(3-(trifluoromethyl)-5,6,7,8-tetrahydro-[1,2,4]triazolo [4,3-a]pyrazine-7-carbonyl)piperidin-1-yl) quinoline-7-carboxamide] in this work.
An IC50 of 368 nM was found for `CCNC(=O)c1ccc2c(N3CC[C@H](C(=O)N4CCn5c(nnc5C(F)(F)F)C4)[C@H](C)C3)ccnc2c1` [Example 69, N-ethyl-4-((3S,4S)-3-methyl-4-(3-(trifluoromethyl)-5,6,7,8-tetrahydro-[1,2,4]triazolo [4,3-a]pyrazine-7-carbonyl)piperidin-1-yl) quinoline-7-carboxamide] in this work.
An IC50 of 0.7 nM was found for `CCNC(=O)c1ccc2c(N3CC[C@H](C(=O)N4CCn5c(nnc5C(F)(F)F)C4)[C@H](C)C3)c(Cl)cnc2c1` [Example 70, 3-chloro-N-ethyl-4-((3 S,4S)-3-methyl-4-(3-(trifluoromethyl)-5,6,7,8-tetrahydro-[1,2,4]triazolo[4,3-a]pyrazine-7-carbonyl)piperidin-1-yl)quinoline-7-carboxamide] in this work.
An IC50 of 305 nM was found for `C[C@@H]1CN(c2ccnc3cc(S(C)(=O)=O)ccc23)CC[C@@H]1C(=O)N1CCn2c(nnc2C(F)(F)F)C1` [Example 71, ((3 S,4S)-3-methyl-1-(7-(methylsulfonyl)quinolin-4-yl)piperidin-4-yl)(3-(trifluoromethyl)-5,6-dihydro-[1,2,4]triazolo[4,3-a]pyrazin-7(8H)-yl)methanone] in this work.
An IC50 of 1.2 nM was found for `C[C@@H]1CN(c2c(Cl)cnc3cc(S(C)(=O)=O)ccc23)CC[C@@H]1C(=O)N1CCn2c(nnc2C(F)(F)F)C1` [Example 72, ((3S,4S)-1-(3-chloro-7-(methylsulfonyl)quinolin-4-yl)-3-methylpiperidin-4-yl)(3-(trifluoromethyl)-5,6-dihydro-[1,2,4]triazolo[4,3-a]pyrazin-7(8H)-yl)methanone] in this work.
An IC50 of 0.4 nM was found for `C[C@@H]1CN(c2ccnc3cc(-c4ncco4)ccc23)CC[C@@H]1C(=O)N1CCn2c(nnc2C(F)(F)F)C1` [Example 73, ((3S,4S)-3-methyl-1-(7-(oxazol-2-yl)quinolin-4-yl)piperidin-4-yl)(3-(trifluoromethyl)-5,6-dihydro-[1,2,4]triazolo[4,3-a]pyrazin-7(8H)-yl)methanone] in this work.
An IC50 of 41.7 nM was found for `C[C@@H]1CN(c2ccnc3cc(-n4cncn4)ccc23)CC[C@@H]1C(=O)N1CCn2c(nnc2C(F)(F)F)C1` [Example 74, ((3S,4S)-1-(7-(1H-1,2,4-triazol-1-yl)quinolin-4-yl)-3-methylpiperidin-4-yl)(3-(trifluoromethyl)-5,6-dihydro-[1,2,4]triazolo[4,3-a]pyrazin-7(8H)-yl)methanone] in this work.
An IC50 of 1.4 nM was found for `Cc1coc(-c2ccc3c(N4CC[C@H](C(=O)N5CCn6c(nnc6C(F)(F)F)C5)[C@H](C)C4)ccnc3c2)n1` [Example 75, ((3S,4S)-3-methyl-1-(7-(4-methyloxazol-2-yl)quinolin-4-yl)piperidin-4-yl)(3-(trifluoromethyl)-5,6-dihydro-[1,2,4]triazolo[4,3-a]pyrazin-7(8H)-yl)methanone] in this work.
An IC50 of 0.7 nM was found for `C[C@@H]1CN(c2c(Cl)cnc3cc(-c4ncco4)ccc23)CC[C@@H]1C(=O)N1CCn2c(nnc2C(F)(F)F)C1` [Example 76, ((3S,4S)-1-(3-chloro-7-(oxazol-2-yl)quinolin-4-yl)-3-methylpiperidin-4-yl)(3-(trifluoromethyl)-5,6-dihydro-[1,2,4]triazolo[4,3-a]pyrazin-7(8H)-yl)methanone] in this work.
An IC50 of 0.2 nM was found for `C[C@@H]1CN(c2c(Cl)cnc3cc(-c4ncco4)ccc23)CC[C@@H]1C(=O)N1CCc2c(noc2C(F)(F)F)C1` [Example 77, ((3S,4S)-1-(3-chloro-7-(oxazol-2-yl)quinolin-4-yl)-3-methylpiperidin-4-yl)(3-(trifluoromethyl)-4,5-dihydroisoxazolo [3,4-c]pyridin-6(7H)-yl)methanone] in this work.
